Patent US7175993B2 (Saladax Biomedical, Inc., priority 2004, dated 2007)

Key:
Format in all cases: binding, mice
[1] = tested on: taxol polyclonal antibodies; assay: Indirect competitive microtiter plate immunoassay (ELISA), polyclonal antibodies to taxol (pool of antisera); conditions: for Cross-reactivity relative to taxol: polyclonal antibody pool
Experimental: (§1) The assay was performed by incubating 50 μL of the analytes to be measured with 50 μL of antibody (produced in example 4) diluted to a titer determined in example 8a. […] Following this incubation the wells of the plate were washed three times with 0.02 M TRIS, 0.9% NaCl, 0.5% Tween-80 and 0.001% Thimerosal, pH 7.8 to remove any material that was not bound. […] To develop a measurable color in the wells, washing was followed by the addition of 100 μL of TMB (TMB Liquid Substrate, Sigma), a substrate for HRP, to develop color in a 10 minute incubation with shaking at room temperature. Following the incubation for color development, 50 μL of stop solution (1.5% sodium fluoride in di H2O) was added to each well to stop the color development and after 10 seconds of shaking the absorbance was determined at 650 nm (Molecular Devices Plate Reader). The amount of antibody in a well was proportional to the absorbance measured and inversely proportional to the amount of taxol in the sample. The absorbance of the color in the wells containing analyte is compared to that with no analyte and a standard curve is generated. […] The cross-reactivity with 6-α-hydroxypaclitaxel was less than 60%. […]
(§2) The assay was performed by incubating 50 μL of the analytes to be measured with 50 μL of antibody (produced in example 4) diluted to a titer determined in example 8a. […] Following this incubation the wells of the plate were washed three times with 0.02 M TRIS, 0.9% NaCl, 0.5% Tween-80 and 0.001% Thimerosal, pH 7.8 to remove any material that was not bound. […] This secondary antibody was capable of binding specifically with murine immunoglobulins producing a colored product when incubated with a substrate. […] To develop a measurable color in the wells, washing was followed by the addition of 100 μL of TMB (TMB Liquid Substrate, Sigma), a substrate for HRP, to develop color in a 10 minute incubation with shaking at room temperature. Following the incubation for color development, 50 μL of stop solution (1.5% sodium fluoride in di H2O) was added to each well to stop the color development and after 10 seconds of shaking the absorbance was determined at 650 nm (Molecular Devices Plate Reader). The amount of antibody in a well was proportional to the absorbance measured and inversely proportional to the amount of taxol in the sample. The absorbance of the color in the wells containing analyte is compared to that with no analyte and a standard curve is generated. […]

[2] = tested on: Monoclonal Ab #2 (monoclonal antibody to taxol); assay: Indirect competitive microtiter plate immunoassay (ELISA), Monoclonal Ab #2
Experimental: as §1, §2

[3] = tested on: Monoclonal Ab #1 (monoclonal antibody to taxol); assay: Indirect competitive microtiter plate immunoassay (ELISA), Monoclonal Ab #1
Experimental: as §1, §2

[4] = microtiter plate sensitized with Taxol Derivative 5 (example 9a)
[5] = microtiter plate sensitized with Taxol Derivative 8 (example 9b)
[6] = plate sensitized with Taxol Derivative 5
[7] = plate sensitized with Taxol Derivative 8

SMILES	Cross-reactivity relative to taxol [1, 4]	Cross-reactivity relative to taxol [1, 5] [%]	Cross-reactivity relative to taxol [2, 6]	Cross-reactivity relative to taxol [2, 7] [%]	Cross-reactivity relative to taxol [3, 6] [%]	Cross-reactivity relative to taxol [3, 7] [%]	IC50 ([1]; antisera of the four individual mice combined in the pool) [µg/mL]
CC(=O)O[C@@]12CO[C@@H]1C[C@H](O)[C@@]1(C)C(=O)[C@H](O)C3=C(C)[C@@H](OC(=O)[C@H](O)[C@@H](NC(=O)OC(C)(C)C)c4ccccc4)C[C@@](O)([C@@H](OC(=O)c4ccccc4)[C@H]21)C3(C)C [Docetaxel]	≦5%	0.16	101%	85	76	77	
CC(=O)O[C@H]1C(=O)[C@@]2(C)[C@H]([C@H](OC(=O)c3ccccc3)[C@]3(O)C[C@H](O)C(C)=C1C3(C)C)[C@]1(OC(C)=O)CO[C@@H]1C[C@@H]2O [Baccatin III]	0.10%	0.10	≦0.19%	0.13	0.13	0.17	
CC(=O)O[C@H]1C(=O)[C@@]2(C)[C@H]([C@H](OC(=O)c3ccccc3)[C@]3(O)C[C@H](OC(=O)[C@H](O)[C@@H](NC(=O)c4ccccc4)c4ccccc4)C(C)=C1C3(C)C)[C@]1(OC(C)=O)CO[C@@H]1C[C@@H]2O [Taxol (Paclitaxel), Taxol]							< 0.02
CC(=O)O[C@H]1C(=O)[C@@]2(C)[C@H]([C@H](OC(=O)c3ccccc3)[C@]3(O)C[C@H](OC(=O)[C@H](O)[C@@H](NC(=O)c4ccccc4)c4ccc(O)cc4)C(C)=C1C3(C)C)[C@]1(OC(C)=O)CO[C@@H]1C[C@@H]2O [3′-p-Hydroxypaclitaxel, 3′-p-hydroxypaclitaxel]	≦10%	0.57	≦2.3%	1.5	5.9	8.1	
CC(=O)O[C@H]1C(=O)[C@@]2(C)[C@H]([C@H](OC(=O)c3ccccc3)[C@]3(O)C[C@H](OC(=O)[C@H](O)[C@@H](NC(=O)c4ccccc4)c4ccccc4)C(C)=C1C3(C)C)[C@]1(OC(C)=O)CO[C@@H]1[C@@H](O)[C@@H]2O [6-α-Hydroxypaclitaxel, 6-α-hydroxypaclitaxel]	<58%	1.60	≦4.6%	2.9	5.1	6.5	
